The values that follow come from patent EP2812315B1, “PYRROLIC DERIVATIVES, PROCESSES FOR PREPARING THE SAME AND THEIR USES AS A DRUG” (Universite Joseph Fourier, priority 2012, dated 2013).

What all share (format): cell-based
Assay [1] relates to MRC5. The experiment in a line: In vitro cytotoxicity. As to conditions: MRC5 (human lung fibroblast), triplicate; for inhibition at 10 µM: 10^-5 M in DMSO, read-out: % of cellular growth inhibition; for inhibition at 1 µM: 10^-6 M in DMSO, read-out: % of cellular growth inhibition (converted). How it is done: (§1) In vitro cytotoxicity was assayed on three cell lines - KB (human mouth carcinoma), MCR5 (human lung fibroblast) and HCT116 (human colon tumor). Results are presented in table III as % of cellular growth inhibition in presence of 10^-5 M and 10^-6 M of the tested bis-pyrrolic derivatives in DMSO (triplicate).

In assay [2] the test system is HCT116 (human colon tumor). Nature of the assay: In vitro cytotoxicity. Conditions: triplicate; for inhibition at 10 µM: HCT-116, 10^-5 M in DMSO, read-out: % of cellular growth inhibition; for inhibition at 1 µM: HCT-116, 10^-6 M in DMSO, read-out: % of cellular growth inhibition (converted). The protocol:
as §1

In assay [3] the test system is KB (human mouth carcinoma). Nature of the assay: In vitro cytotoxicity. As to conditions: triplicate; for inhibition at 10 µM: 10^-5 M in DMSO, read-out: % of cellular growth inhibition; for inhibition at 1 µM: 10^-6 M in DMSO, read-out: % of cellular growth inhibition (converted). The protocol:
as §1

Assay [4] has as its system Acinetobacter baumanii ATCC 19606. Nature of the assay: MIC determination, microdilution method (CLSI M07-A8). As to conditions: Acinetobacter baumannii, ATCC19606; Acinetobacter baumanii ATCC 19606; 18 hours incubation; read-out: MIC. How it is done:
(§2) The microdilution method recommended by the Clinical and Laboratory Standard Institute [M07-A8, Vol.29, N°2] was used. The activity of pyrrolic compounds was tested against 29 bacterial strains belonging to 17 different species and 12 different genera (Staphylococcus, Streptococcus, Enterococcus, […], Bacillus, Haetttophilus, Escherichia, Klebsiella, Enterobacter, Serratia, Pseudomonas, and Acinetobacter). Bacterial inocula were prepared in Mueller Hinton broth (MH2, bioMérieux, Marcy L'Etoile, France), supplemented with 10% sheep blood for fastidious species (i.e., Streptococcus pneumoniae and Haemophilus influenzae). They were dispensed in 96 well microtiter plates (5 x 10^5 CFU/mL of final inoculum). Pyrrolic compounds were added to the wells as to obtain two-fold serial concentrations (0.25-64 mg/L). Plates were incubated at 37°C, in 5% CO2 enriched atmosphere for fastidious species only. MICs were read after 18 hours incubation of cultures, and corresponded to the minimum pyrrolic compound concentration that allowed complete visual growth inhibition of bacteria. Drug-free cultures served as growth controls. Cultures receiving gentamicine, ciprofloxacine or cefotaxime served as positive controls.
(In broth dilution the organism is exposed to a series of concentrations in liquid medium.)

Assay [5] concerns Staphylococcus epidermidis ATCC 12228. The assay is described as above. Conditions: ATCC12228; Staphylococcus epidermidis ATCC 12228; 5 x 10^5 CFU/mL; 18 hours incubation; read-out: MIC. How it is done:
as §2

In assay [6] the test system is Staphylococcus aureus ATCC 29213. Described as above. As to conditions: ATCC29213; Staphylococcus aureus ATCC 29213; 5 x 10^5 CFU/mL; 18 hours incubation; read-out: MIC. How it is done: as §2
In assay [7] the test system is Staphylococcus aureus (SA-1199B, NorA). Nature of the assay: Other MIC determination, microdilution method (CLSI M07-A9) with modifications. Conditions: 18 h. The protocol:
The microdilution method recommended by the Clinical and Laboratory Standard Institute [M07-A9, Vol.32, N°2] was used with the following modifications.
Bacterial inocula were prepared in Mueller Hinton broth (MH2, BioMérieux, Marcy L'Etoile, France). They were dispensed in 96 well microtiter plates (10^6 CFU/ml of final inoculum, 192 µL per well).
To avoid cross-contaminations in microtiter plates, one row was left blank between each strain tested. Microplates were incubated for 18h at 37 °C in ambient air. Then MICs were read visually and, in case of visual reading difficulties, confirmed using a spectrophotometer at a wavelength of 630 nm (BioTek® EL808 Absorbance Microplate Reader). MICs corresponded to the minimum pyrrolic compound concentrations that allowed complete visual growth inhibition of bacteria. Drug-free cultures served as growth controls.
We used four Staphylococcus aureus strains. Two reference strains were provided by the French reference center for Staphylococcus spp. (Lyon, France), including one methicillin-susceptible (MSSA 476) and one methicillin-resistant (MRSA 252) S. aureus strains. The two remaining S. aureus strains were purchased from the CRBIP (Centre de Ressources Biologiques de l'Institut Pasteur): a vancomycin-intermediate strain (ATCC 106414) and a S. aureus strain (SA-1199B) resistant to fluoroquinolones due to overexpression of the NorA multidrug efflux pump. Coagulase-negative Staphylococcus strains included three reference strains purchased from CRBIP: a methicillin-susceptible S. epidermidis strain (ATCC 12228), a methicillin-resistant S. epidermidis strain (ATCC 49461), and a methicillin-susceptible S. sciuri strain (ATCC 29061). We also used 37 clinical strains belonging to the following coagulase-negative Staphylococcus species: S. arlettae (two strains), S. capitis (nine strains), S. epidermidis (one strain), S. haemolyticus (six strains), S. hominis (eight strains), S. lugdunensis (one strain), S. massiliensis (one strain), S. pettenkoferi (two strains), S. saprophyticus (two strains), S. simulans (one strain), and S. warneri (four strains) . Identification of the clinical strains was first obtained using VITEK® 2 System (Biomérieux) and confirmed by amplification and sequencing of the tuf gene (Reference: Bergeron, M., O. Dauwalder, M. Gouy, A.-M. Freydiere, M. Bes, H. Meugnier, Y. Benito, J. Etienne, G. Lina, F. Vandenesch, and S. Boisset. Species identification of staphylococci by amplification and sequencing of the tuf gene compared to the gap gene and by matrix-assisted laser desorption ionization time-of-flight mass spectrometry, Eur. J. Clin. Microbial. Infect. Dis. 2011, 30, 343-354).
The activity of pyrrolic compounds 3c, 3e-3j and 3n was first tested against 12 Staphylococcus sp. strains, including 7 reference strains and five clinical strains. The MICs of these compounds against Staphylococcus aureus ATCC 106414 (VISA) and Staphylococcus epidermidis ATCC 12228 are in accordance with those described in Tables I and II.

Each structure is given as a SMILES string. ≈ marks a conversion by molar mass, not a printed value. Where only a bound is given, the exact number is not on record here.

For orientation: inhibition means the change of the read-out against control, counted positive when it falls. The MIC is the least concentration at which growth counts as inhibited. Regarding `CC(=O)c1c(C)[nH]c(C(c2ccc(Cl)cc2)c2[nH]c(C)c(C(C)=O)c2C)c1C` [3c], the inhibition at 10 µM in assay [1] came out at 9 ± 1%; in assay [2], 17 ± 11%; in assay [3] it was 27 ± 7%. The MIC in assay [4] is > 128 µg/mL; in assay [5], > 128 µg/mL; in assay [6], 2 µg/mL (≈ 5.04 µM).
Take `CC(=O)c1c(C)[nH]c(C(c2cc3ccccc3o2)c2[nH]c(C)c(C(C)=O)c2C)c1C` [3e]: the inhibition at 10 µM in assay [1] turned out to be 7 ± 1%; in assay [2] it was 24 ± 6%; in assay [3], 2 ± 3%. The MIC is > 128 µg/mL in assay [4], > 128 µg/mL in assay [5] and 2 µg/mL (≈ 4.97 µM) in assay [6].
For `CC(=O)c1c(C)[nH]c(C(c2cc3ccccc3s2)c2[nH]c(C)c(C(C)=O)c2C)c1C` [3f], the inhibition at 10 µM in assay [1] came out at 0%; in assay [2], 19 ± 4%; in assay [3], 23 ± 3%. The MIC in assay [7] was 2 µg/mL (≈ 4.78 µM); in assay [4], > 128 µg/mL; in assay [5], > 128 µg/mL; in assay [6], 2 µg/mL (≈ 4.78 µM).
Regarding `CC(=O)c1c(C)[nH]c(C(c2ccc(F)cc2)c2[nH]c(C)c(C(C)=O)c2C)c1C` [3g], the figures for the inhibition at 10 µM in assay [1], in assay [2] and in assay [3] were 2 ± 1%, 3 ± 6% and 11 ± 3%, respectively. The MIC in assay [7] is 8 µg/mL (≈ 21 µM); in assay [4] it was > 32 µg/mL; in assay [5], > 128 µg/mL; in assay [6], 1 µg/mL (≈ 2.63 µM).
Regarding `CC(=O)c1c(C)[nH]c(C(c2[nH]c(C)c(C(C)=O)c2C)c2cccc3ccccc23)c1C` [3h], the inhibition at 10 µM in assay [1] came out at 25 ± 4%; in assay [2], 53 ± 2%; in assay [3], 54 ± 4%. Moreover, the inhibition at 1 µM in assay [1] is 0%; in assay [2], 5%; in assay [3] it was 0%. In addition, the MIC in assay [7] was 2 µg/mL (≈ 4.85 µM); in assay [4] it was > 128 µg/mL; in assay [5], > 128 µg/mL; in assay [6], 1 µg/mL (≈ 2.42 µM).
Turning to `CC(=O)c1c(C)[nH]c(C(c2[nH]c(C)c(C(C)=O)c2C)c2csc3ccccc23)c1C` [3i], the inhibition at 10 µM in assay [1] amounted to 84 ± 1%; in assay [2], 50 ± 1%; in assay [3], 95 ± 1%. Also, the inhibition at 1 µM in assay [1] is 0%; in assay [2] it was 10%; in assay [3] it was 0%. The minimum inhibitory concentration (MIC) in assay [7] was 1 µg/mL (≈ 2.39 µM); in assay [4] it was > 128 µg/mL; in assay [5], > 128 µg/mL; in assay [6] it was 0.5 µg/mL (≈ 1.19 µM).
Take `COC(=O)c1cccc(C(c2[nH]c(C)c(C(C)=O)c2C)c2[nH]c(C)c(C(C)=O)c2C)c1` [3j, Methyl-3-[bis(4-acetyl-3,5-dimethyl-1H-pyrrol-2-yl)methyl]benzoate]: the figures for the inhibition at 10 µM in assay [1], in assay [2] and in assay [3] were 5 ± 1%, 1 ± 3% and 11 ± 3%, respectively. For the same compound, the MIC was 8 µg/mL (≈ 19 µM) in assay [7], > 32 µg/mL in assay [4], > 128 µg/mL in assay [5] and 2 µg/mL (≈ 4.76 µM) in assay [6].
Take `CC(=O)c1c(C)[nH]c(C(c2[nH]c(C)c(C(C)=O)c2C)c2csc3ccc(Br)cc23)c1C` [3n]: the inhibition at 10 µM in assay [1] turned out to be 96 ± 1%; in assay [2] it was 83 ± 1%; in assay [3], 100 ± 1%. For the same compound, the inhibition at 1 µM was 67% in assay [1], 47% in assay [2] and 81% in assay [3].
